# Source: PubChem BioAssay AID1259411 (Chemical Carcinogenesis Research Information System (CCRIS), 2018)
# The source made the active and inactive calls. No rule for the calls is given here.
# Tested on: rodent carcinogenicity bioassays, tumor incidence
# Assay: CCRIS carcinogenicity studies
# Procedure, shortened: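 NCI-built, expert-reviewed records of carcinogenicity and related test outcomes (mutagenicity, tumor promotion/inhibition) compiled from published and report sources, historical span 1985-2011, not updated.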
smiles,measurement,setting,value
c1ccccc1,carcinogen call,"Species: HUMAN, Route: INHALATION, DERMAL, Tumor Site: Type of Lesion: HEMATOPOIETIC SYSTEM (LEUKEMIA)",active; positive
same,carcinogen call,"Species: MOUSE, Route: INHALATION, Dose: 0, 300 PPM 6 HR/D 5 D/WK FOR 16 WK (STUDY DURATION: LIFETIME), Tumor Site: Type of Lesion: HEMATOPOIETIC SYSTEM: LYMPHOMA",active; positive
same,carcinogen call,"Species: MOUSE, Strain/Sex: B6C3F1/FEMALE, Route: GAVAGE, Dose: 0, 25, 50, 100 MG/KG IN CORN OIL 5 D/WK FOR 103 WK, Dose: 0, 25, 50, 100 MG/KG IN CORN OIL 5 D/WK FOR 103 WK, Tumor Site: Type of Lesion: LUNG: ALVEOLAR/BRONCHIOLAR CARCINOMA, ALVEOLAR/BRONCHIOLAR ADENOMA OR CARCINOMA, HEMATOPOIETIC SYSTEM: MALIGNANT LYMPHOM",active; positive
same,carcinogen call,"Species: MOUSE, Strain/Sex: B6C3F1/MALE, Route: GAVAGE, Dose: 0, 25, 50, 100 MG/KG IN CORN OIL 5 D/WK FOR 103 WK, Dose: 0, 25, 50, 100 MG/KG IN CORN OIL 5 D/WK FOR 103 WK, Tumor Site: Type of Lesion: LUNG: ALVEOLAR/BRONCHIOLAR CARCINOMA, ALVEOLAR/BRONCHIOLAR ADENOMA, HEMATOPOIETIC SYSTEM: MALIGNANT LYMPHOMA, LEUKEMIA O",active; positive
same,carcinogen call,"Species: MOUSE, Strain/Sex: C57BL/FEMALE, Route: INHALATION, Dose: 0, 300 PPM 6 HR/D 5 D/WK FOR 16 WK (STUDY DURATION: 64 WK), Tumor Site: Type of Lesion: LYMPHATIC SYSTEM: LYMPHOMA",active; positive
same,carcinogen call,"Species: MOUSE, Strain/Sex: C57BL/FEMALE, Route: INHALATION, Dose: 0, 300 PPM 6 HR/D 5 D/WK FOR 16 WK (STUDY DURATION: 750 D), Tumor Site: Type of Lesion: HEMATOPOIETIC SYSTEM: LYMPHOCYTIC LEUKEMIA, LEUKEMIA, THYMUS GLAND: LEUKEMIA, ZYMBAL GLAND: TUMOR, OVARY: TUMOR, Tumor Site: Type of Lesion: HEMATOPOIETIC SYSTEM: LYMPHOCYTIC LEUKEMIA, LEUKEMIA, THYMUS GLAND: LEUKEMIA, ZYMBAL GLAND: TUMOR, OVARY: TUMOR",active; positive
same,carcinogen call,"Species: MOUSE, Strain/Sex: C57BL/MALE, Route: INHALATION, Dose: 0, 300 PPM 6HR/D, 5D/WK FOR 1 WK FOLLOWED BY 2 WK NO TREATMENT, CYCLE REPEATED FOR LIFESPAN (STUDY DURATION: LIFESPAN), Tumor Site: Type of Lesion: LUNG: ADENOMA, HEMATOPOIETIC SYSTEM: LEUKEMIA OR LYMPHOMA, ZYMBAL GLAND: CARCINOMA, Tumor Site: Type of Lesion: LUNG: ADENOMA, HEMATOPOIETIC SYSTEM: LEUKEMIA OR LYMPHOMA, ZYMBAL GLAND: CARCINOMA",active; positive
same,carcinogen call,"Species: MOUSE, Strain/Sex: C57BL/MALE, Route: INHALATION, Dose: 0, 300 PPM 6 HR/D, 5 D/WK FOR LIFE, Tumor Site: Type of Lesion: HEMATOPOIETIC SYSTEM: LYMPHOCYTIC LYMPHOMA",active; positive
same,carcinogen call,"Species: MOUSE, Strain/Sex: C57BL/MALE, Route: INHALATION, Dose: 0, 1200 PPM 6HR/D, 5D/WK FOR 10 WK (STUDY DURATION: LIFESPAN)",inactive; negative
same,carcinogen call,"Species: MOUSE, Strain/Sex: CBA/CA BNL/FEMALE, Route: INHALATION, Dose: 0, 300 PPM 6 HR/D 5 D/WK FOR 16 WK (STUDY DURATION: >1100 D), Tumor Site: Type of Lesion: HEMATOPOIETIC SYSTEM: MYELOGENOUS NEOPLASM",active; positive
same,carcinogen call,"Species: MOUSE, Strain/Sex: CBA/CA BNL/MALE, Route: INHALATION, Dose: 0, 100, 300 PPM 6 HR/D 5 D/WK FOR 16 WK (STUDY DURATION: >1100 D), Dose: 0, 100, 300 PPM 6 HR/D 5 D/WK FOR 16 WK (STUDY DURATION: >1100 D), Tumor Site: Type of Lesion: HEMATOPOIETIC SYSTEM: MYELOGENOUS NEOPLASM",active; positive
same,carcinogen call,"Species: MOUSE, Strain/Sex: CBA/MALE, Route: INHALATION, Dose: 0, 300 PPM 6 HR/D 5 D/WK FOR 16 WK (STUDY DURATION: 22 MO), Tumor Site: Type of Lesion: LYMPHATIC SYSTEM: MALIGNANT LYMPHOMA, PREPUTIAL GLAND: SQUAMOUS CELL CARCINOMA, LUNG: ADENOMA, Tumor Site: Type of Lesion: LYMPHATIC SYSTEM: MALIGNANT LYMPHOMA, PREPUTIAL GLAND: SQUAMOUS CELL CARCINOMA, LUNG: ADENOMA",active; positive
same,carcinogen call,"Species: MOUSE, Strain/Sex: CD-1/MALE, Route: INHALATION, Dose: 0, 300 PPM 6HR/D, 5D/WK FOR 1 WK FOLLOWED BY 2 WK NO TREATMENT, CYCLE REPEATED FOR LIFESPAN (STUDY DURATION: LIFESPAN), Tumor Site: Type of Lesion: LUNG: ADENOMA, HEMATOPOIETIC SYSTEM: LEUKEMIA OR LYMPHOMA, ZYMBAL GLAND: CARCINOMA, Tumor Site: Type of Lesion: LUNG: ADENOMA, HEMATOPOIETIC SYSTEM: LEUKEMIA OR LYMPHOMA, ZYMBAL GLAND: CARCINOMA",active; positive
same,carcinogen call,"Species: MOUSE, Strain/Sex: CD-1/MALE, Route: INHALATION, Dose: 0, 1200 PPM 6HR/D, 5D/WK FOR 10 WK (STUDY DURATION: LIFESPAN), Tumor Site: Type of Lesion: LUNG: ADENOMA, HEMATOPOIETIC SYSTEM: LEUKEMIA OR LYMPHOMA, ZYMBAL GLAND: CARCINOMA, Tumor Site: Type of Lesion: LUNG: ADENOMA, HEMATOPOIETIC SYSTEM: LEUKEMIA OR LYMPHOMA, ZYMBAL GLAND: CARCINOMA",active; positive
same,carcinogen call,"Species: MOUSE, Strain/Sex: EU-PIM-1/FEMALE, Route: GAVAGE, Dose: 0, 50, 100 MG/KG 1/D FOR 40 WK (STUDY DURATION: 40 WK), Dose: 0, 50, 100 MG/KG 1/D FOR 40 WK (STUDY DURATION: 40 WK)",inactive; negative
same,carcinogen call,"Species: MOUSE, Strain/Sex: EU-PIM-1/MALE, Route: GAVAGE, Dose: 0, 50, 100 MG/KG 1/D FOR 40 WK (STUDY DURATION: 40 WK), Dose: 0, 50, 100 MG/KG 1/D FOR 40 WK (STUDY DURATION: 40 WK)",inactive; negative
same,carcinogen call,"Species: MOUSE, Strain/Sex: SWISS/FEMALE, Route: GAVAGE, Dose: 0, 500 MG/KG IN OLIVE OIL 1/D FOR 4 TO 5 D/WK FOR 78 WK (STUDY DURATION: LIFETIME), Tumor Site: Type of Lesion: MAMMARY GLAND: CARCINOMA, LUNG: TUMORS, ZYMBAL GLAND: CARCINOMA, Tumor Site: Type of Lesion: MAMMARY GLAND: CARCINOMA, LUNG: TUMORS, ZYMBAL GLAND: CARCINOMA",active; positive
same,carcinogen call,"Species: MOUSE, Strain/Sex: SWISS/FEMALE, Route: INTRAGASTRIC, Dose: 0, 500 MG/KG IN OLIVE OIL 1/D 4-5 D/WK FOR 78 WK (STUDY DURATION: LIFESPAN), Tumor Site: Type of Lesion: LUNG: ADENOMA, MAMMARY GLAND: MALIGNANT TUMOR",active; positive
same,carcinogen call,"Species: MOUSE, Strain/Sex: SWISS/FEMALE, Route: INTRAPERITONEAL, Dose: 0, 36.1, 137.3 UMOL ADMINISTERED AS 3 UNEQUAL DOSES (1/7, 2/7, AND 4/7 OF THE TOTAL DOSE) OVER A 2-WK PERIOD (STUDY DURA, Dose: 0, 36.1, 137.3 UMOL ADMINISTERED AS 3 UNEQUAL DOSES (1/7, 2/7, AND 4/7 OF THE TOTAL DOSE) OVER A 2-WK PERIOD (STUDY DURA",inactive; negative
same,carcinogen call,"Species: MOUSE, Strain/Sex: SWISS/MALE, Route: GAVAGE, Dose: 0, 500 MG/KG IN OLIVE OIL 1/D FOR 4 TO 5 D/WK FOR 78 WK (STUDY DURATION: LIFETIME), Tumor Site: Type of Lesion: LUNG: TUMOR, ZYMBAL GLAND: CARCINOMA",active; positive
same,carcinogen call,"Species: MOUSE, Strain/Sex: SWISS/MALE, Route: INTRAGASTRIC, Dose: 0, 500 MG/KG IN OLIVE OIL 1/D 4-5 D/WK FOR 78 WK (STUDY DURATION: LIFESPAN), Tumor Site: Type of Lesion: ZYMBAL GLAND: CARCINOMA, LUNG: ADENOMA",active; positive
same,carcinogen call,"Species: MOUSE, Strain/Sex: SWISS/MALE, Route: INTRAPERITONEAL, Dose: 0, 36.1, 137.3 UMOL ADMINISTERED AS 3 UNEQUAL DOSES (1/7, 2/7, AND 4/7 OF THE TOTAL DOSE) OVER A 2-WK PERIOD (STUDY DURA, Dose: 0, 36.1, 137.3 UMOL ADMINISTERED AS 3 UNEQUAL DOSES (1/7, 2/7, AND 4/7 OF THE TOTAL DOSE) OVER A 2-WK PERIOD (STUDY DURA",inactive; negative
same,carcinogen call,"Species: Mouse, Strain/Sex: C57BL/6 (heterozygous Trp53-deficient)/Male, Route: Inhalation, Dose: 0, 33, 100, 300 ppm 6 hr/d, 5 d/wk for 26 wks, then no exposure for lifetime, Dose: 0, 33, 100, 300 ppm 6 hr/d, 5 d/wk for 26 wks, then no exposure for lifetime, Tumor Site: Type of Lesion: Blood: hematopoietic neoplasms (38, 41, 36, 89%). Lymphoid tissue: thymic lymphoma (0, 4,16, 73%)",active; positive (highest dose)
